In article PMC7778606, “Development of the phenylpyrazolo[3,4-d]pyrimidine-based, insulin-like growth factor receptor/Src/AXL-targeting small molecule kinase inhibitor” (Theranostics, 2021):

Legend:
[1] = MTT assay, viability of Wi38 human lung fibroblasts; type: cell-based; details: human, Wi38 lung fibroblasts; Wi38, 10 μM; read-out: percentage of cell viability
Method: (§1) Cells were seeded into 96-well plates at a density of 1-2 × 10^3 cells/well and incubated for 24 h. Cells were treated with vehicle or various concentrations of test compounds for two (PC9 and PC9/ER cells) or three (other cells) days. Cells were further incubated with MTT solution (final concentration of 500 μg/mL) for 4 h at 37 °C. The formazan products were dissolved in dimethyl sulfoxide (DMSO), and the absorbance was measured at 570 nm. The data are presented as a percentage of the control group.

Wi38 cells = experiment: as above; type: cell-based; details: WI-38, 72 h; Wi38 human lung fibroblasts, MTT assay, three days; read-out: IC50 against the viability
Method: as §1

H1299/CsR cells = experiment: MTT assay, viability of cisplatin-resistant H1299/CsR cells; type: cell-based; details: Homo sapiens, NCI-H1299, 72 h, three days, read-out: IC50 against the viability
From the text: Human lung cancer cell lines (A549, H1299, H1993, H1944, H226B, H226Br, H460, H522, HCC15, and PC9), a diploid human lung fibroblast cell line (Wi38), and the Lewis lung carcinoma (LLC) cell line were purchased from the American Type Culture Collection (ATCC, Manassas, VA, USA) or kindly provided by Dr. John V. Heymach (MD Anderson Cancer Center, Houston, TX, USA). Human retinal pigment epithelial (RPE) cells were kindly provided by Dr. Jeong Hun Kim (College of Medicine, Seoul National University, Seoul, Republic of Korea). HT-22 cells were provided by Dr. Dong Gyu Jo (College of Pharmacy, Sungkyunkwan University, Suwon, Republic of Korea). Lung cancer cells were cultured in RPMI 1640 medium supplemented with 10% fetal bovine serum (FBS) and antibiotics (Welgene, Gyeongsan-si, Republic of Korea). LLC, HT-22, and Wi38 cells were maintained in DMEM supplemented with 10% FBS and antibiotics. RPE cells were maintained in DMEM/F12 supplemented with 10% FBS and antibiotics. […]
Cells were seeded into 96-well plates at a density of 1-2 × 10^3 cells/well and incubated for 24 h. […] The formazan products were dissolved in dimethyl sulfoxide (DMSO), and the absorbance was measured at 570 nm. […]

97 tested kinases = experiment: Kinome-wide inhibition profiling (KINOMEscan, TREEspot); type: binding, human; details: 10 µM, > 65% inhibition
Toxicity test in mice = type: in vivo, FVB mice
Method: Blood was collected from euthanized mice under isoflurane-induced deep anesthesia by cardiac puncture. After allowing blood coagulation at 4 °C, serum was collected by centrifugation at 3,000 rpm for 10 min at 4 °C. Analysis of the serum levels of alanine aminotransferase (ALT) and aspartate aminotransferase (AST) was performed using a veterinary hematology analyzer (Fuji DRI-Chem 3500s, Fujifilm, Tokyo, Japan) according to the manufacturer' s protocols.

[2] = system: H1944 and A549 xenograft tumors; experiment: NSCLC xenograft tumor model; type: in vivo, NOD/SCID mice; details: 80 mg/kg
Method: (§2) All animal experiments were performed according to protocols approved by the Seoul National University Institutional Animal Care and Use Committee. Mice were fed standard mouse chow and water ad libitum and housed in temperature- and humidity-controlled facilities with a 12-h light/12-h dark cycle. For xenograft experiments, H1944 and A549 cells (1×10^6 cells/spot, diluted in equal amounts of PBS and Matrigel) were subcutaneously injected into the right flank of 6-week-old non-obese diabetic-severe combined immunodeficiency (NOD/SCID) mice. After the tumor volume reached 50-150 mm^3, the mice were randomly grouped and treated with vehicle [10% DMSO in 60% polyethylene glycol (PEG) 400 solution] or LL6 (80 mg/kg) 6 days per week for 2 weeks. Tumor growth was determined by measuring the short and long diameters of the tumor with a caliper, and body weight was measured once or twice per week to monitor toxicity. Additionally, to evaluate the effect of LL6 on mutant Kras-driven lung tumorigenesis, 2-month-old Kras^G12D/+ transgenic mice were randomized and treated with vehicle or LL6 (80 mg/kg) for 8 weeks. The mice were euthanized, and tumor formation was evaluated and compared with that of the vehicle-treated control group. Microscopic evaluations of the H&E-stained lung tissue were also performed to measure mean tumor number (N) and volume (V) in a blinded fashion. The number and size of tumors were calculated in five sections uniformly distributed throughout each lung. In both animal experiments, the tumor volume and burden of each sample were calculated using the following formulas: Tumor volume (mm^3) = (short diameter)^2 × (long diameter) × 0.5; Tumor burden (mm^3) = number of tumors × the average of tumor volume.

[3] = system: Kras^G12D/+-driven lung tumors; experiment: Mutant Kras-driven lung tumorigenesis model; type: in vivo, Kras^G12D/+ transgenic mice
Method: as §2
Sections derived from formalin-fixed and paraffin-embedded murine lung tissues were deparaffinized by incubation overnight at 65 °C, followed by rehydration in sequential xylene and ethanol rinses. After incubation with hydrogen peroxide, the slides were washed with PBS and then incubated with 0.3% Triton X-100. The sections were incubated with blocking solution (Dako Protein Block, Dako, Glostrup, Denmark) for 30 min at room temperature after washing with PBS. The sections were further incubated with primary antibodies (pAXL, pIGF-1R, and pSrc, diluted at 1:200) overnight at 4 °C, washed with PBS several times, incubated with the corresponding biotinylated secondary antibodies (diluted at 1:500), and then washed with PBS multiple times. After adding avidin-biotin complexes (Vector Laboratories, Burlingame, CA, USA), the sections were visualized using diaminobenzidine detection reagent (Enzo Life Sciences, Farmingdale, NY, USA) and mounted with a mounting solution (Vector Laboratories).

NSCLC cells = experiment: Transwell migration assay; type: cell-based, human; details: concentration-dependent, 8-12 h after treatment
[4] = LL6-treated mice vs vehicle-treated control

IC50 (H1299/CsR cells): 1070 nM
Compound: Nc1ncnc2c1c(-c1ccc(Cl)cc1)nn2CCn1cc(COc2ccc(Nc3nccc(Nc4cnc5ccccc5c4)n3)cc2)nn1 [LL6]
viability at 3 days, 10 µM [1]: > 60%
IC50 (Wi38 cells): > 10000 nM
S-score (97 tested kinases): 0.12
histological alterations in major organs, including the lung and liver (Toxicity test in mice; H&E-stained tissues): did not cause detectable histological alterations
serum ALT level (Toxicity test in mice; [4]): remained unchanged
serum AST level (Toxicity test in mice; [4]): remained unchanged
body weight (Toxicity test in mice; mice, LL6 20, 40, and 80 mg/kg daily for 2 weeks): remained unchanged
tumor growth and weight ([2]; H1944 and A549 xenografts, 6 days per week for 2 weeks): significantly reduced
expression of phosphorylated IGF-1R and Src in tumors ([2]; Western blot of xenograft tumors): substantially suppressed
body weight ([2]; xenograft-bearing mice): minimal changes
tumor volume and burden ([3]; 80 mg/kg for 8 weeks): Substantial decreases
lung tumor nodules (multiplicity) ([3]; 80 mg/kg for 8 weeks, especially nodules > 1 mm^3): significantly decreased
body weight ([3]; 80 mg/kg for 8 weeks, vs vehicle): no detectable difference
levels of pIGF-1R, pSrc, and pAXL in lung tumors ([3]; immunohistochemistry, 80 mg/kg, vs vehicle): significantly decreased levels
migration of NSCLC cells (NSCLC cells): effectively suppressed
